# Assays:
# Pin1 in PATU-8988T cells = target: T1, Pin1 in PATU-8988T cells (Homo sapiens, UniProt Q13526); test: Live cell competition assay with Pin1-3-DTB pull-down, PATU-8988T cells; type: cell-based
# T1 construct: endogenous in cells; host or cells: PATU-8988T
# Protocol: The indicated cells were treated with increasing concentrations of either DMSO, Pin1-3, or Pin1-3-AcA for 5 hours. Cells were harvested by scraping and washed twice with PBS before lysis with 50 mM HEPES (pH 7.4), 1 mM EDTA, 10% glycerol, 1 mM TCEP, 150 mM NaCl, 1 mM EDTA, 0.5% NP-40, and protease inhibitor tablet (Roche cat. #4693159001). After clarifying (14,000 rpm for 15 minutes), samples were treated with the indicated concentrations of Pin1-3-DTB at 4° C. for 1 hour. Lysates were then incubated with streptavidin agarose resin (Thermo Scientific, cat. #20349) for 1.5 hour at 4° C. Beads were washed four times with 500 μl of washing buffer (50 mM HEPES (pH 7.5), 10 mM NaCl, 1 mM EDTA, 10% glycerol), then pelleted by centrifugation and dried. The beads were boiled for 5 minutes at 95° C. in 2×LDS+10% β-mercaptoethanol. Proteins of interest were then assessed via Western blotting using the bolt system (Life Technologies).
# The indicated cells were plated in 10 cm plates with 2.5 million cells per plate in 6 ml of medium. The day after plating, cells were treated with the indicated concentrations of candidate inhibitor for the indicated time points. The cells were then washed two times with cold phosphate buffer saline (1 ml per 10 cm plate) and collected by scraping with a cell scraper. Cells were lysed in 50 mM HEPES (pH 7.4), 1 mM EDTA, 10% glycerol, 1 mM TCEP, 150 mM NaCl, 1 mM EDTA, 0.5% NP-40, and protease inhibitor tablet (Roche)-using 210 μl of cell lysis buffer per 10 cm plate of cells. After clarifying (14,000 rpm for 15 minutes), 9 μl of each lysate sample was combined with […] of 4×LDS+10% β-mercaptoethanol (in a ratio of 3:1), boiled for 5 minutes, and set aside for the input loading control. Then, 200 μl of each lysate sample was incubated with 1 μM of Pin1-3-DTB for 1 hour at 4° C. and processed as described hereinabove for the lysate pull-down assays.
# In order to assess cell permeability of Pin1-3 as well as its ability to engage cellular Pin1, PATU-8988T cells were treated with Pin1-3 (0.25 to 1 μM) for 5 hours. After cell lysis, the lysates were incubated with Pin1-3-DTB (1 μM, 1 hour at 4° C.) and probe-labeled targets were pulled down with streptavidin beads.
# GST-Pin1 = GST-Pin1 (Homo sapiens, UniProt Q13526); test: Pin1 substrate activity assay (chymotrypsin-coupled PPIase assay); type: biochemical; details: pre-incubation 12 hours at 4° C.
# Chain of GST-Pin1 (Q13526 whole entry): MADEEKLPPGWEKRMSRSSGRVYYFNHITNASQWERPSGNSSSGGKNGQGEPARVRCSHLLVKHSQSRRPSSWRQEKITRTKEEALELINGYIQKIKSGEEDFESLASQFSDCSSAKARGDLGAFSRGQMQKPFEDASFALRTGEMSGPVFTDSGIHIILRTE
# Protocol: Inhibition of Pin1 isomerase activity was determined using the chymotrypsin-coupled PPIase assay, using GST-Pin1 and Suc-Ala-pSer-Pro-Phe-pNA (SEQ ID NO: 2) peptide substrate ([…]), according to procedures described by Yaffe [Science 1997, 278:1957-1960]. GST-Pin1 was pre-incubated with the indicated concentrations of compound for 12 hours at 4° C. in buffer containing 35 mM HEPES (pH 7.8), 0.2 mM DTT, and 0.1 mg/ml BSA (bovine serum albumin). Immediately before the assay was started, chymotrypsin (final concentration of 6 mg/ml), followed by the peptide substrate (Suc-Ala-pSer-Pro-Phe-pNA (SEQ ID NO: 2) peptide substrate, final concentration […]) was added. The apparent Ki value (under the tested conditions) obtained from the PPIase assay was derived from the Cheng-Prusoff equation: […]
# wherein Km is the Michaelis constant for the used substrate, S is the initial concentration of the substrate in the assay, and IC50 is the half-minimal inhibitory concentration of the inhibitor.
# Covalent labeling of Pin1 was confirmed to translate into enzyme inhibition via a fluorescence polarization (FP) competition assay using a FITC-labeled substrate mimetic peptide inhibitor, as well as a chymotrypsin-coupled PPIase assay, using procedures described in Wei et al. [Nat Med 2015, 21:457-466].
# [1] = system: 300 suspension and hematopoietic human cancer cell lines; test: PRISM anti-proliferative profiling; type: cell-based; details: 120 h, all 300 cancer cell lines, 5-day treatment
# Description: In order to profile the anti-proliferative activity of Pin1-3, the compound was submitted to the PRISM platform (Broad Institute) to evaluate its potency against 300 suspension and hematopoietic human cancer cell lines. The PRISM method enables high-throughput, pooled screening of mixtures of cell lines, which are each labeled with a 24-nucleotide barcode [Yu et al., Nat Biotechnol 2016, 34:419-423].
# [2] = system: MDA-MB-468 breast adenocarcinoma cells; test: Prolonged-treatment cell growth, MDA-MB-468; type: cell-based; details: MDA-MB-468, 1 or 2.5 μM
# Protocol: (§1) The ability of Pin1-3 treatment to induce more pronounced anti-proliferative effects after prolonged treatment (6-8 days) was then assessed. In order to ensure that target engagement was maintained for the duration of the experiment, Pin1-3 was replenished in fresh media every 48 hours.
# [3] = system: Pancreatic ductal adenocarcinoma (PDAC) cells; test: PDAC cell growth; type: cell-based, human; details: treated for 3 days
# Protocol: Pancreatic ductal adenocarcinoma (PDAC) cells (derived from a human patient) were treated with Pin1-3 for 3 days. PDAC organoids were treated with Pin1-3 for 7 days (day 7 to day 14).
# [4] = system: Kuramochi ovarian carcinoma cells; test: Prolonged-treatment cell growth, Kuramochi; type: cell-based; details: 1 or 2.5 μM
# Protocol: as §1
# Pin1 = target: T2, Pin1 (Mus musculus, UniProt Q9QUR7); test: In vivo Pin1 engagement, spleen competition pull-down; set-up: species or system mice
# T2 construct: from tissue; host or cells: mouse spleen
# T2 sequence (Q9QUR7 whole entry): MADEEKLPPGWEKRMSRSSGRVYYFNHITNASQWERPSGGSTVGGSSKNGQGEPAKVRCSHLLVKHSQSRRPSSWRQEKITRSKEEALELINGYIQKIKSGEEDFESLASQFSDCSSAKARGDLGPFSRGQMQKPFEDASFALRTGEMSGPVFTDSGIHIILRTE
# Protocol: The in vivo engagement of Pin1 by Pin1-3 was then assessed using Pin1-3-DTB. Mice were treated with either vehicle, 10 mg/kg or 20 mg/kg Pin1-3 by oral gavage (QD) for 3 days, followed by lysis of the spleens for a competition pull-down experiment.
# T1 sequence (Q13526 whole entry): as the sequence (Q13526 whole entry) above
compound,measurement,setting,value
"CC(C)(C)CN(C(=O)CCl)C1CCS(=O)(=O)C1 (centres unmarked) [Pin1-3, 2-chloro-N-(sulfolan-3-yl)-N-neopentylacetamide]",Engagement of Pin1 after 2 hours,Pin1 in PATU-8988T cells; 1 μM,about 50%
same,Time to complete engagement of Pin1,Pin1 in PATU-8988T cells; 1 μM,≤ 4 h
same,Competition with Pin1-3-DTB for Pin1 binding (pull-down),Pin1 in PATU-8988T cells; 0.25 to 1 μM for 5 hours (Pin1-3-AcA 1 μM),dose-dependent inhibition of Pin1-3-DTB pull-down
same,Concentration of maximal competition,Pin1 in PATU-8988T cells; 5 hours,1 µM
same,IC50,GST-Pin1,103 nM
same,IC50,[1],> 3000 nM
same,Cell growth,[2],long-term inhibition
same,PDAC cell growth,[3],inhibited tumor growth of PDAC cells in a dose-dependent manner
same,Cell growth,[4],long-term inhibition
same,Mice with effective Pin1 engagement,Pin1; 10 mg/kg oral gavage QD for 3 days,1 of the 3 mice
same,Mice with effective Pin1 engagement,Pin1; 20 mg/kg oral gavage QD for 3 days,all 3 mice
